Experiments:
yeast α-glucosidase = yeast α-glucosidase (Saccharomyces cerevisiae, UniProt P53341); assay: Inhibition kinetics of α-glucosidase (Lineweaver–Burk and Dixon plots); format: biochemical; conditions: for Inhibition Mode, α-Glucosidase: Lineweaver–Burk plots
[1] = biological target: T1, porcine pancreas α-amylase (Sus scrofa, UniProt P00690); assay: Inhibition kinetics of α-amylase (Lineweaver–Burk and Dixon plots); conditions: for Inhibition Mode, α-Amylase: Lineweaver–Burk plots
T1 sequence (P00690 16-511): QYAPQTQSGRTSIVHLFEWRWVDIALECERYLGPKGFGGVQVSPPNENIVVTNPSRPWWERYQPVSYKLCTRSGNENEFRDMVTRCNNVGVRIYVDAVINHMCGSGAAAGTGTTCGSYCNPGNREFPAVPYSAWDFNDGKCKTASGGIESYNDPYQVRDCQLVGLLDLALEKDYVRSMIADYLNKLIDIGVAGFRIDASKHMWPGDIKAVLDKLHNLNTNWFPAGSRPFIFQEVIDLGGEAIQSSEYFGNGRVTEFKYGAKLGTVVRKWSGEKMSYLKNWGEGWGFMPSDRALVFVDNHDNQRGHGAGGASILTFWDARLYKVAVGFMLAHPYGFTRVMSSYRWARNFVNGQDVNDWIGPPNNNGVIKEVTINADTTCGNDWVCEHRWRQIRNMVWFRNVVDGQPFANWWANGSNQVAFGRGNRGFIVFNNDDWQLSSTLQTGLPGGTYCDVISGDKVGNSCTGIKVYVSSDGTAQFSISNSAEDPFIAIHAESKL
Description: Using Lineweaver–Burk plots, the mode of inhibition was established, followed by secondary plots (Dixon plots) depending on the established mode of inhibition. The following equation was used to obtain the inhibition constants (Ki) [15]: v=Vmax ×S/Km(1+[I]/Ki)+S(1+[I]/αKi) where S and I are the concentrations of the substrate and inhibitor, respectively; Vmax is the maximum velocity; Km is the Michaelis–Menten constant; Ki is the competitive inhibition constant; and αKi is the uncompetitive inhibition constant.
Lineweaver–Burk plots on monoreplicate tests were performed followed by Dixon secondary plots to determine the inhibition constants. The means of the observed triplicate inhibition constants were subjected to analysis of variance with Tukey HSD/Tukey Kramer post-analysis to compare means. The least significant difference was considered at p < 0.05 and the coefficient of determination (R^2) was obtained as the average of the regression curves from Dixon plots of individual experiments.

α-glycosidase = biological target: α-glycosidase; design: method as in PMID 32889048; conditions: read-out: IC50 against α-glycosidase; cited from earlier work
[2] = Lineweaver-Burk plot, competitive inhibition

yeast α-glucosidase, sequence (P53341 whole entry): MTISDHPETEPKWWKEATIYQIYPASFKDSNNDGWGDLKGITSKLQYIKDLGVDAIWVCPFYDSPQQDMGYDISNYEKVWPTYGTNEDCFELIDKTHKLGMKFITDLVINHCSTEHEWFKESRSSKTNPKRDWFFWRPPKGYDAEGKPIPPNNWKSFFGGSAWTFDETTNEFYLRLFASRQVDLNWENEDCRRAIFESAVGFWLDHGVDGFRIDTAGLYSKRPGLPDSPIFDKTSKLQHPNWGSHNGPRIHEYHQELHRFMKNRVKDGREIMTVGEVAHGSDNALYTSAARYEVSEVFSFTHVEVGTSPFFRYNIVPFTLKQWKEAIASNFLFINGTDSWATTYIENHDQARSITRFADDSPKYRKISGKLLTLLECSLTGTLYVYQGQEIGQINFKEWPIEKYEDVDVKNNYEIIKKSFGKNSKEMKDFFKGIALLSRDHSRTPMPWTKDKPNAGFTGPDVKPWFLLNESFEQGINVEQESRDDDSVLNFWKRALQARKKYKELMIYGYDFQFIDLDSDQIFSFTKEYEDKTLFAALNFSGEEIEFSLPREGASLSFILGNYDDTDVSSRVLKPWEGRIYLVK

Row | Compound | Inhibition Mode, α-Glucosidase (yeast α-glucosidase) | Inhibition Mode, α-Amylase [1] | IC50 (α-glycosidase) | 1/Vmax, α-glucosidase (yeast α-glucosidase; [2]) | 1/Vmax, α-amylase [1, 2]
1 | COc1cc(-c2cc3cc(/C=C/CO)cc(OC)c3o2)ccc1O [Compound 9, ailanthoidol] | Uncompetitive | Uncompetitive | – | – | –
2 | 6-hydroxy-N-methyldecarine [Compound 8] | Mixed | Mixed | – | – | –
3 | C[C@H]1O[C@H](O[C@H]2[C@H](O)[C@@H](O)[C@@H](O[C@H]3[C@H](O)[C@@H](O)C(O)O[C@@H]3CO)O[C@@H]2CO)[C@H](O)[C@@H](O)[C@@H]1N[C@H]1C=C(CO)[C@@H](O)[C@H](O)[C@H]1O (stereo partly shown) [Acarbose, acarbose, reference compound] | Competitive | Competitive | 44.9 µM | – | –
4 | COc1ccc2c(cnc3c4cc5c(cc4ccc23)OCO5)c1OC [Compound 6, norchelerythrine] | Mixed | Mixed | – | – | –
5 | CC(C)CNC(=O)/C=C/c1ccc2c(c1)OCO2 [Compound 4, fagaramide] | Non-competitive | Non-competitive | – | – | –
6 | c1cc2c(cc1C1OCC3C(c4ccc5c(c4)OCO5)OCC13)OCO2 (stereo not shown) [Compound 11, sesamine] | non-competitive | Non-competitive | – | – | –
7 | CC(C)CNC(=O)/C=C/C/C=C/c1ccc2c(c1)OCO2 [Compound 1, Chalybemide A] | Non-competitive | Non-competitive | – | – | –
8 | CC(C)(O)CNC(=O)/C=C/c1ccccc1 [Compound 2, chalybemide B] | Uncompetitive | Non-competitive | – | – | –
9 | OCC1OC1c1ccc2c(c1)OCO2 (stereo not shown) [Compound 10, 2,3-epoxy-6,7-methylenedioxyconiferol] | Competitive | Competitive | – | 20.25 s⁻¹ | 24.47 s⁻¹
10 | COc1ccc2c(OC)c3ccoc3nc2c1OC [Compound 5, skimmianine] | Mixed | Mixed | – | – | –
11 | COc1ccc(CN(C)C(=O)c2ccccc2OC)cc1 [Compound 3, chalybemide C] | Non-competitive | Non-competitive | – | – | –
